Measurements: PubChem BioAssay AID1033 (Sanford-Burnham Center for Chemical Genomics, 2008)
Active and inactive are the calls of the source. How the calls were made is not given here.

Molecular target: Chaperone protein DnaK (Escherichia coli (strain K12)) (UniProt P0A6Y8)
Experiment: E. coli DnaK SBD ligand binding – biophysical, NMR, chaperone (AID 1033)
Details: Purified DnaK SBD

Chain of Chaperone protein DnaK (Escherichia coli (strain K12)) (P0A6Y8 whole entry, looked up): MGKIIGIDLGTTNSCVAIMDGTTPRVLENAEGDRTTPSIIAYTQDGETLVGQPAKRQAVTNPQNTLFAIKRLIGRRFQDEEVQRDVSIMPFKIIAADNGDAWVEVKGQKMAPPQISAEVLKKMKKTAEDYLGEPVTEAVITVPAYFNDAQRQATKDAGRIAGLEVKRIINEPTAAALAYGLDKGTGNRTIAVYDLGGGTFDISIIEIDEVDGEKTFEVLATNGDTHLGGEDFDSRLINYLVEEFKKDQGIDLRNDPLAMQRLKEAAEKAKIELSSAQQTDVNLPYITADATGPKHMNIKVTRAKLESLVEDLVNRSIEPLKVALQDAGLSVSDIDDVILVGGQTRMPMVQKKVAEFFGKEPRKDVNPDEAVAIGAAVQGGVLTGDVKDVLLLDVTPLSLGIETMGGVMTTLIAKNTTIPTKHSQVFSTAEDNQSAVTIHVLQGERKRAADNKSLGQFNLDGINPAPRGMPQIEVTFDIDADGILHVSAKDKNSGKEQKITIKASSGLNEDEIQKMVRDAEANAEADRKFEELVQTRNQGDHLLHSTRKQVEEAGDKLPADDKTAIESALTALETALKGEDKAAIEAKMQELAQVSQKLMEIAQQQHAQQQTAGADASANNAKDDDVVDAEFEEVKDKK

SMILES	Kd
Cn1cccc1C(=S)N1CCOCC1	> 4 mM (inactive)
O=C1CN(C(=O)c2ccccc2)c2ccccc2N1	> 4 mM (inactive)
Cc1n[nH]c(=S)n(/N=C/c2ccccc2)c1=O	> 4 mM (inactive)
C=CC(C1=CC(=O)C(OC)=CC1=O)c1ccc(O)cc1 (stereo not given)	> 4 mM (inactive)
COC(=O)c1c(OC)cc2c(c1C)Oc1c(Cl)c(OC(C)=O)c(Cl)c(C)c1C(=O)O2	> 4 mM (inactive)
O=C(Nc1ccccc1Cl)c1cnccn1	> 4 mM (inactive)
C=CC(=O)N1CC2CC(C1)c1cccc(=O)n1C2 (stereo not given)	> 4 mM (inactive)
O=C1CCC(=O)N1c1cccnc1	> 4 mM (inactive)
Nc1ccccc1C(=O)N1CCNC(=O)C1	> 4 mM (inactive)
O=c1ccc2cc(O[C@@H]3O[C@H](CO)[C@@H](O)[C@H](O)[C@H]3O)c(O)cc2o1	> 4 mM (inactive)
CC(=O)O[C@H]1C(=O)[C@@]2(C)C([C@H](OC(=O)c3ccccc3)[C@]3(O)C[C@H](OC(=O)[C@H](O)[C@@H](NC(=O)c4ccccc4)c4ccccc4)C(C)=C1C3(C)C)[C@]1(OC(C)=O)CO[C@@H]1C[C@@H]2O (stereo not given in full)	> 4 mM (inactive)
C[C@]12CCC(=O)C=C1CCC1C2C(=O)C[C@@]2(C)C1CC[C@]2(O)C(=O)CO (stereo not given in full)	> 4 mM (inactive)
CC(=O)O[C@@H]1CC2C(C)(C)C(=O)C3OC3[C@]2(C)C2CC[C@@]3(C)[C@H](c4ccoc4)OC(=O)C4OC43[C@@]21C (stereo not given in full)	> 4 mM (inactive)
CC1CC[C@@]2(OC1)O[C@H]1CC3C4CC[C@@H]5C[C@@H](O)CC[C@]5(C)C4CC[C@]3(C)[C@H]1[C@@H]2C (stereo not given in full)	> 4 mM (inactive)
CC1CCc2cc(F)ccc2N1C(=O)c1ccc(=O)[nH]n1 (stereo not given)	> 4 mM (inactive)
CC(=O)c1cc(CN2C(=O)c3ccccc3C2=O)cs1	> 4 mM (inactive)
Nc1nc2[nH]c(=O)c(=O)[nH]c2c(=O)[nH]1	> 4 mM (inactive)
CC(C)CCn1cnc2c1c(=O)n(C)c(=O)n2C	> 4 mM (inactive)
COc1cc(OC)c2c(c1Cl)OC1(C2=O)C(O)=CC(=O)CC1C (stereo not given)	> 4 mM (inactive)
NC1=NC(=O)/C(=C\c2cccc(C(=O)O)c2)S1	> 4 mM (inactive)
CC(=O)Oc1c2c(c(CC=C(C)C)c3c1C(=O)C1=C[C@@H]4CC5C(C)(C)OC(C/C=C(\C)C(=O)O)(C4=O)[C@@]15O3)OC(C)(CCC=C(C)C)C=C2 (stereo not given in full)	> 4 mM (inactive)
CNC(=O)C(=O)Nc1ccc(C)c(C)c1	> 4 mM (inactive)

SMILES	Kd
O=C1CC(=O)N(c2cccc(Cl)c2)N1	> 4 mM (inactive)
O=C(Cc1ccccc1)Nc1c[nH]c(=O)[nH]c1=O	> 4 mM (inactive)
CN(C)C(=O)Oc1ccc(-c2nnco2)cc1	> 4 mM (inactive)
O=C(NC(=S)NCCO)c1ccccc1	> 4 mM (inactive)
O=[N+]([O-])c1cccc(-c2nnco2)c1	> 4 mM (inactive)
O=C(Nc1ccc(N2CCOCC2)cc1)c1cnsn1	> 4 mM (inactive)
COc1ccc(-c2nc3nc(C)cc(C)n3n2)cc1	> 4 mM (inactive)
NCC(N)C(=O)c1ccccc1 (stereo not given)	> 4 mM (inactive)
Cc1onc(-c2ccccc2)c1CO	> 4 mM (inactive)
CC1CN(Cc2ccccn2)CCC1=O (stereo not given)	> 4 mM (inactive)
O=C(CN1CCOCC1)Nc1cccc(Br)c1	> 4 mM (inactive)
O=C(O)c1cccnc1N1CCCC1	> 4 mM (inactive)
Nc1ccc2c(c1)OCCO2	> 4 mM (inactive)
C=C(C)[C@H]1COc2cc3oc(=O)ccc3cc2O1	> 4 mM (inactive)
COC(=O)CCC(C)C1CCC2C3CCC4C[C@H](O)CC[C@]4(C)C3C[C@H](O)[C@]12C (stereo not given in full)	> 4 mM (inactive)
COc1ccc2nc(NC(=O)c3cnccn3)sc2c1	> 4 mM (inactive)
O=C(O)C1CC(=O)N(Cc2ccco2)C1 (stereo not given)	> 4 mM (inactive)
CC(=O)Nc1ccc(CN2CCOCC2)cc1	> 4 mM (inactive)
CC(C)(O)CC[C@@H](O)[C@](C)(O)C1CC[C@@]2(O)C3=CC(=O)C4C[C@@H](O)[C@@H](O)C[C@]4(C)C3CC[C@]12C (stereo not given in full)	> 4 mM (inactive)
O=C(Nc1cnccn1)c1cccs1	> 4 mM (inactive)
Cc1nnc(SCc2ccon2)n1-c1ccccc1	> 4 mM (inactive)
COc1ccc(C)cc1S(N)(=O)=O	> 4 mM (inactive)

SMILES	Kd
CNC(=O)c1ccccc1-c1ccccc1	> 4 mM (inactive)
COc1ccc(C)cc1S(=O)(=O)NC1CCCC1	> 4 mM (inactive)
CCNC(=S)Nc1c(C)n(C)n(-c2ccccc2)c1=O	> 4 mM (inactive)
O=C(NCc1cccc(Cl)c1)c1ccco1	> 4 mM (inactive)
COc1cccc(-c2nn(-c3ccccc3)cc2CO)c1	> 4 mM (inactive)
CN1CCC(N(C)C2CCN(C)CC2)CC1	> 4 mM (inactive)
Nc1ccc(OC(F)(F)F)cc1	> 4 mM (inactive)
CC(C)CCCC(C)C1CCC2C3=CC[C@H]4C[C@@H](O)CC[C@]4(C)C3CC[C@@]21C (stereo not given in full)	> 4 mM (inactive)
Cc1cc(C(=O)NCc2cccnc2)no1	> 4 mM (inactive)
CNC(=S)Nc1ccc(C(=O)O)cc1	> 4 mM (inactive)
Cc1cc2c(=O)n(C)c(SCC(N)=O)nc2s1	> 4 mM (inactive)
Cc1ccc(C(=O)NCCO)c(Cl)c1	> 4 mM (inactive)
Cc1ccc(-c2c(C)n([O-])c(C)c(C)[n+]2=O)cc1	> 4 mM (inactive)
CCOC(=O)c1csc(N)n1	> 4 mM (inactive)
CN(C)CCCN1CNC(=S)NC1	> 4 mM (inactive)
CC(C)=CC1C(C(=O)O)C1(C)C (stereo not given)	> 4 mM (inactive)
O=C1c2ccccc2C(=O)c2c(O)c(O)cc(O)c21	> 4 mM (inactive)
O=C1NC(=S)NC(=O)C1=Cc1cccs1	> 4 mM (inactive)
COc1ccc(Cl)cc1NC(=O)c1ccco1	> 4 mM (inactive)
O=C1C=C(O)c2ccccc2C1=O	> 4 mM (inactive)
Cc1nnc(SCC(=O)NC2CCCC2)[nH]c1=O	> 4 mM (inactive)
Nc1nnc(COc2cccc(C(F)(F)F)c2)s1	> 4 mM (inactive)

SMILES	Kd
Cc1ccc(C(=O)N2CCC(C(=O)O)CC2)cc1	> 4 mM (inactive)
O=C1NC(=O)/C(=C\c2ccco2)S1	> 4 mM (inactive)
COc1ccc2nc(N)sc2n1	> 4 mM (inactive)
CC(=O)O[C@@H]1CC2C(C)(C)C(=O)C=C[C@]2(C)C2CC[C@]3(C)C(=CC(=O)O[C@H]3c3ccoc3)[C@@]21C (stereo not given in full)	> 4 mM (inactive)
CC[C@H](/C=C/C(C)C1CCC2C3CCC4=CC(=O)CC[C@]4(C)C3CC[C@]12C)C(C)C (stereo not given in full)	> 4 mM (inactive)
Cc1nn(C)c(N2CCOCC2)c1N	> 4 mM (inactive)
COc1ccc([C@@H]2CC(=O)c3c(O)cc(O[C@@H]4O[C@H](CO[C@H]5O[C@@H](C)[C@H](O)[C@@H](O)[C@H]5O)[C@@H](O)[C@H](O)[C@H]4O)cc3O2)cc1O	> 4 mM (inactive)
COc1ccc(NC(=O)CSc2nccc(=O)[nH]2)cc1	> 4 mM (inactive)
NC(=S)CN1CCCC1=O	> 4 mM (inactive)
COc1cc(OC)cc(-c2nc(N)n[nH]2)c1	> 4 mM (inactive)
CC(C)CCCC(C)[C@H]1CCC2C3CC=C4C[C@@H](O)CC[C@]4(C)C3CC[C@@]21C (stereo not given in full)	> 4 mM (inactive)
OCc1cccc2c1OCO2	> 4 mM (inactive)
O=C(Nc1ccc(Cl)cn1)c1cnn2cccnc12	> 4 mM (inactive)
O=c1c2ccccc2oc2ccccc12	> 4 mM (inactive)
COc1ccc(-c2cc(=O)c3c(O)cc(O[C@H]4O[C@H](CO[C@@H]5O[C@@H](C)[C@H](O)[C@@H](O)[C@H]5O)[C@@H](O)[C@H](O)[C@H]4O)cc3o2)cc1	> 4 mM (inactive)
NC(=O)C(=O)NCc1ccc(Cl)cc1	> 4 mM (inactive)
O=C(CSc1ncnc2ccccc12)NCCCO	> 4 mM (inactive)
CC(C)C(=O)NCC(c1ccco1)N1CCOCC1 (stereo not given)	> 4 mM (inactive)
CC[C@@H]1[C@@H](O)N2C3C[C@H]1C1C(O)[C@]4(C[C@@H]12)c1ccccc1N(C)[C@@H]34 (stereo not given in full)	> 4 mM (inactive)
Cn1nccc1N	> 4 mM (inactive)
CO[C@H]1[C@@H](O)[C@@H](C)O[C@H](O[C@H]2CCC3(C)C4CCC5(C)[C@@H](C6=CC(=O)OC6)CC[C@]5(O)[C@@H]4CC[C@]3(O)C2)[C@@H]1O (stereo not given in full)	> 4 mM (inactive)
O=C1NC(=Nc2ccccc2Cl)SC1(CO)CO	> 4 mM (inactive)

SMILES	Kd
COc1ccccc1C(=O)NC1CCN(C)CC1	> 4 mM (inactive)
COC(=O)c1c(C)cc(OC)cc1O	> 4 mM (inactive)
O=C(NCN1CCOCC1)c1cccnc1	> 4 mM (inactive)
Nc1ncnc(NCCO)c1[N+](=O)[O-]	> 4 mM (inactive)
CC(=O)c1c(C)nn(CC(=O)O)c1C	> 4 mM (inactive)
COc1cc(OC)c2c(=O)c(-c3ccc4c(c3)OCO4)coc2c1	> 4 mM (inactive)
CNC(=O)N1CCN(C(=O)NC)CC1	> 4 mM (inactive)
Cc1cc(NC(=O)Cc2cccs2)no1	> 4 mM (inactive)
CC(=O)Nc1cc(N2C(=O)C=CC2=O)ccc1Cl	> 4 mM (inactive)
Nc1nc2ccc(C(=O)O)cc2s1	> 4 mM (inactive)
O=C1CC(N2CCC(O)CC2)C(=O)N1c1ccc(F)cc1 (stereo not given)	> 4 mM (inactive)
Cc1noc(C)c1C(=O)N1CCN(c2ncccn2)CC1	> 4 mM (inactive)
CN=C(c1ccc([N+](=O)[O-])cc1)N(C)C	> 4 mM (inactive)
O=C(NCc1cccs1)c1ccncc1	> 4 mM (inactive)
Cc1cc(C)n(CCCC(=O)O)n1	> 4 mM (inactive)
CCOC(=O)CC1Sc2ccccc2NC1=O (stereo not given)	> 4 mM (inactive)
O=C1C2CC=CCC2C(=O)N1c1ccccc1 (stereo not given)	> 4 mM (inactive)
CC1=C(/C=C/C(C)=C/C=C/C(C)=C/C=C/C=C(C)/C=C/C=C(C)/C=C/C2=C(C)CCCC2(C)C)C(C)(C)CCC1	> 4 mM (inactive)
Nc1cc(C(=O)O)ccc1N1CCCCCC1	> 4 mM (inactive)
O=S(=O)(N1CCCCC1)n1nnc2ccccc21	inactive
Cc1c(C)[n+](=O)c(-c2cccs2)c(C)n1[O-]	> 4 mM (inactive)
O=C1CC(=O)N2N=C(c3ccccc3)SC2=N1	> 4 mM (inactive)
